Assay results taken from US20110152263A1, “COMPOSITION AND METHOD FOR INHIBITING NOROVIRUS INFECTION” (priority 2006, published 2011).

Tests used:
[1] = molecular target: VA387 binding to the B antigen; experiment: Saliva-based blocking EIA: VA387 VLP binding to B antigen; design: species or system Norovirus; conditions: for EC50: VA387 VLP binding to B antigen saliva, read-out: EC50 rVA387 B; for inhibition of VA387 binding to the B antigen: one saliva sample
Source text: (§1) A saliva based blocking assay offers several advantages for anti-Norovirus agent screening. First, the assay is a solid phase blocking assay which is simple and suitable for large scale screening. Second, the source of HBGAs used in the assay was from healthy human volunteers, which is likely to represent the natural forms of Norovirus receptors. Third, the assay is highly sensitive and specific. Finally, a panel of saliva samples can be assembled from different individuals representing different blood types, from which the results obtained in primary screenings can be validated.
(§2) To optimize the blocking assays, we have titrated all reagents used in the assays including the VLPs, the first and second antibodies, the blocking reagent (dried cow milk), and a panel of saliva samples from different donors. […] For comparison of daily results, eight control wells containing everything but compounds were included in each plate, and the assays were considered valid when the daily OD450 variations in these wells were less than 20%. Less than 1% of the total screening runs failed in our study.
(§3) Cow milk contains a large amount of variable proteins, lipids and glycans which can easily interfere with the assay particularly when a low concentration of compounds (μM) was used in our screening. To avoid any false-negative results, the step of addition of blotto in the EIA for all screening experiments in this study was removed.
(§4) Baculovirus-expressed recombinant capsid proteins of four Norovirus strains representing four distinct receptor binding patterns were studied: Norovirus strains Norwalk, VA387, VA207, and MOH. The procedures of production of Norovirus VLPs in insect cell Spodoptera frugiperda (Sf9) have described in “Expression, self-assembly, and antigenicity of the Norwalk virus capsid protein”, J Virol 66:6527-32, Jiang et al (1992), and in “Baculovirus expression and antigenic characterization of the capsid proteins of three Norwalk-like viruses”, Arch Virol 147:119-30, Jiang et al. (2002), the disclosures of which are incorporated herein by reference. Briefly, a cDNA from the 3′ end of the genome containing the viral capsid gene (open reading frame 2 [ORF-2] was cloned from the viral RNA extracted from stool specimens. The recombinant baculoviruses carry the viral capsid genes were constructed from the cloned cDNAs using the Bac to Bac expression system according to the manufacture's instructions (Invitrogen Life Technologies, Carlsbad, Calif.). VLPs were partially purified by sucrose gradient centrifugation and stored at −80° C. Protein concentrations were determined by measuring the optical density at 280 nm (OD280) using a GeneQuant spectrophotometer (Pharmacia, Mich.) and by comparison with a bovine serum albumin standard in a sodium dodecyl sulfate-polyacrylamide gel (25). The purity of VLPs used in this study was over 90% which was determined by SDS-PAGE analysis.
(§5) Saliva samples were collected from healthy adult volunteers under an approval of human subject research protocol by the Institutional Review Board at the Cincinnati Children's Hospital Medical Center. Except for gender and race, no other personal information was collected. A total of 5-10 ml of saliva was collected from each volunteer, and the samples were processed immediately after collection. To avoid potential Norovirus-specific antibodies that may interfere in the receptor binding assays, saliva samples were boiled at 100° C. for 10 min, and then centrifuged at 10,000×g for 5 min. The clear supernatant was stored at −80° C. until use. The HBGA types of the saliva samples were determined by enzyme immune assays with monoclonal antibodies specific to human HBGAs (8). Saliva sample from a type A donor was selected for the primary screening, and a total of 25 saliva samples of known ABO, secretor, and Lewis types were selected for further studies to confirm the primary screening results. […]

[2] = molecular target: MOH binding to the B antigen; experiment: Saliva-based blocking EIA: MOH VLP binding to B antigen; design: species or system Norovirus; conditions: MOH VLP binding to type B saliva; read-out: EC50 rMOH B
Source text: as §1, §2, §3, §4, §5

[3] = molecular target: VA387 VLPs binding to the A antigen; experiment: Saliva-based blocking EIA: VA387 VLP binding to type A saliva; design: species or system Norovirus; conditions: read-out: EC50 rVA387 A
Source text: as §1, §2, §3, §4, §5

[4] = tested on: Norwalk virus binding to the A antigen; experiment: Saliva-based blocking EIA: Norwalk virus VLP binding to A antigen; design: species or system Norovirus; conditions: for EC50: Norwalk VLP binding to A antigen, read-out: EC50 rNorwalk A
Source text: as §1, §2, §3, §4, §5

[5] = molecular target: MOH binding to the A antigen; experiment: Saliva-based blocking EIA: MOH VLP binding to A antigen; design: species or system Norovirus; conditions: MOH VLP binding to type A saliva; read-out: EC50 rMOH A
Source text: as §1, §2, §3, §4, §5

[6] = molecular target: VA387 binding to the H antigen; experiment: Saliva-based blocking EIA: VA387 VLP binding to H antigen; design: species or system Norovirus; conditions: for EC50: VA387 VLP binding to H antigen saliva, read-out: EC50 rVA387 H; for inhibition of VA387 binding to the H antigen: one saliva sample
Source text: as §1, §2, §3, §4, §5

[7] = molecular target: VA207 binding to the Lewis antigens; experiment: Saliva-based blocking EIA: VA207 VLP binding to Lewis antigens; design: species or system Norovirus; conditions: VA207 VLP binding to Lewis antigen; read-out: EC50 rVA207 Le
Source text: as §1, §2, §3, §4, §5

[8] = tested on: Norwalk virus binding to the H antigen; experiment: Saliva-based blocking EIA: Norwalk virus VLP binding to H antigen; design: species or system Norovirus; conditions: for EC50: Norwalk VLP binding to H antigen, read-out: EC50 rNorwalk H
Source text: as §1, §2, §3, §4, §5

[9] = tested on: Human cervical carcinoma cells (HeLa); experiment: MTS cytotoxicity assay, HeLa cells; assay type: cell-based; conditions: 3 days, average of three experiments

Compound | EC50 [1] | inhibition of VA387 binding to the B antigen [1] | EC50 [2] | EC50 [3] | blocking of Norwalk virus binding to the A antigen [4] | EC50 [4] | EC50 [5] | EC50 [6] | inhibition of VA387 binding to the H antigen [6] | EC50 [7] | inhibition of Norwalk virus binding to the H antigen [8] | EC50 [8] | CC50 [9]
CC(C)OC(=O)CC(=O)CSc1nc(-c2ccc(F)cc2)cc(-c2cccs2)c1C#N [Compound 10] | 7.9 µM | dose-dependant inhibition | > 100 µM | 11.8 µM | blocked | 35 µM | > 100 µM | 7.5 µM | dose-dependant inhibition | > 100 µM | inhibited | 19.8 µM | 
O=CC(=O)c1ccc2c(c1)Cc1cc(C(=O)C=O)ccc1-2 [Compound 6] | 44.6 µM | dose-dependant inhibition | > 100 µM | 9.3 µM |  | > 100 µM | > 100 µM | 41.1 µM | dose-dependant inhibition | > 100 µM |  | > 100 µM | 52.7 µM
Cc1ccc(NC(=O)CC(c2ccccc2)c2ccccc2)cc1C [Compound 9] | > 100 µM | did not have any inhibitory activity | > 100 µM | 11.7 µM |  | > 100 µM | > 100 µM | 47.5 µM | revealed inhibitory activity | > 100 µM |  | > 100 µM | 40.3 µM
O=C(C(=O)c1ccc(C(=O)c2ccc(C(=O)C(=O)c3ccc(Sc4ccccc4)cc3)cc2)cc1)c1ccc(Sc2ccccc2)cc1 [Compound 11] | 35.3 µM | dose-dependant inhibition | > 100 µM | 12.8 µM |  | > 100 µM | > 100 µM | 26.1 µM | dose-dependant inhibition | > 100 µM |  | > 100 µM | 
C=C(SCCNC(=O)NCCCCCCNC(=O)NCCSc1ccccc1O)C(C)=CC [Compound 4] | 13.1 µM | dose-dependant inhibition | > 100 µM | 8.1 µM | blocked | 14.1 µM | > 100 µM | 14.2 µM | dose-dependant inhibition | > 100 µM | inhibited | 22.6 µM | 
Oc1ccc(C=Nc2nccs2)c(O)c1 [Compound 7] | 26 µM | dose-dependant inhibition | > 100 µM | 9.6 µM |  | > 100 µM | > 100 µM | 7.6 µM | dose-dependant inhibition | > 100 µM |  | > 100 µM | 
CCCc1ccc(OCc2ccc(C(=O)N/N=C/c3ccc(Cl)cc3O)o2)cc1 [Compound 5] | 13.5 µM | dose-dependant inhibition | > 100 µM | 9.1 µM | blocked | 18.2 µM | > 100 µM | 7.2 µM | dose-dependant inhibition | > 100 µM | inhibited | 36.3 µM | 46.7 µM
CCCCc1ccc(NC(=O)c2ccc(C)cc2)cc1 [Compound 12] | 32.5 µM | dose-dependant inhibition | > 100 µM | 12.8 µM | blocked | 53 µM | > 100 µM | 28.2 µM | dose-dependant inhibition | > 100 µM |  | 47.8 µM | 
FC(F)(F)c1ccc(N/N=C/c2cc(Br)cs2)cc1 [Compound 15] | > 100 µM | did not have any inhibitory activity | > 100 µM | 14.1 µM | blocked | 22.5 µM | > 100 µM | > 100 µM | did not have any inhibitory activity | > 100 µM | inhibited | > 100 µM | 7.6 µM
CCC[n+]1cc(-c2ccccc2)nc(N2CCOCC2)n1.[I-] [Compound 1] | 5.8 µM | dose-dependant inhibition | > 100 µM | 2.2 µM | blocked | 15.6 µM | > 100 µM | 6.8 µM | dose-dependant inhibition | > 100 µM | inhibited | 18.9 µM | 
CCOC(=O)C1=C(C)OC(N)=C(C#N)C1c1ccc(OCc2ccc(C)cc2)c([N+](=O)[O-])c1 (stereo not shown) [Compound 2] | 18.6 µM | dose-dependant inhibition | 13.3 µM | 4.8 µM | blocked | 22.9 µM | 16.5 µM | 11.9 µM | dose-dependant inhibition | > 100 µM | inhibited | 24.5 µM | 78.6 µM
O=C(/C=C/c1ccc(-c2cc(Cl)cc(Cl)c2)o1)c1cccs1 [Compound 8] | > 100 µM | did not have any inhibitory activity | > 100 µM | 10.9 µM |  | > 100 µM | > 100 µM | > 100 µM | did not have any inhibitory activity | > 100 µM |  | > 100 µM | 
CCCOc1ccc(-c2cc(C(=O)N/N=C/c3ccc(OCC)cc3)[nH]n2)cc1 [Compound 14] | > 100 µM | did not have any inhibitory activity | > 100 µM | 13.7 µM |  | > 100 µM | > 100 µM | > 100 µM | did not have any inhibitory activity | > 100 µM |  | > 100 µM | 12.3 µM
Cc1cc(O)c(Sc2c(O)cc(C)cc2C(C)(C)c2ccccc2)c(C(C)(C)c2ccccc2)c1 [Compound 13] | 49.5 µM | dose-dependant inhibition | > 100 µM | 13.6 µM |  | > 100 µM | > 100 µM | 48.1 µM | dose-dependant inhibition | > 100 µM |  | > 100 µM | 70.6 µM
